Assay results from PubChem BioAssay (NCI).
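Grown in 96-well plates, cells were treated for 48 hours with each compound at five concentrations. Insufficient inhibition: endpoint recorded as highest concentration tested. TGI is the concentration that stops growth completely.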

Assays:
Test in all cases: NCI tumour cell line growth inhibition, 48 h
DLD-1 colon = tested on: DLD-1 colon
DMS 114 small cell lung = tested on: DMS 114 small cell lung
DMS 273 small cell lung = tested on: DMS 273 small cell lung
DU-145 prostate = tested on: DU-145 prostate
HOP-18 NSCLC = tested on: HOP-18 NSCLC
KM20L2 colon = tested on: KM20L2 colon
LXFL 529 NSCLC = tested on: LXFL 529 NSCLC
M19-MEL melanoma = tested on: M19-MEL melanoma
OVCAR-8 ovarian = tested on: OVCAR-8 ovarian
P388 leukemia = tested on: P388 leukemia
P388/ADR leukemia = tested on: P388/ADR leukemia
SK-MEL-2 melanoma = tested on: SK-MEL-2 melanoma
SK-OV-3 ovarian = tested on: SK-OV-3 ovarian
SN12K1 renal = tested on: SN12K1 renal
SNB-78 CNS = tested on: SNB-78 CNS
SR leukemia = tested on: SR leukemia
TK-10 renal = tested on: TK-10 renal
XF 498 CNS = tested on: XF 498 CNS

SMILES | TGI (DLD-1 colon) | TGI (DMS 114 small cell lung) | TGI (DMS 273 small cell lung) | TGI (DU-145 prostate) | TGI (HOP-18 NSCLC) | TGI (KM20L2 colon) | TGI (LXFL 529 NSCLC) | TGI (M19-MEL melanoma) | TGI (OVCAR-8 ovarian) | TGI (P388 leukemia) | TGI (P388/ADR leukemia) | TGI (SK-MEL-2 melanoma) | TGI (SK-OV-3 ovarian) | TGI (SN12K1 renal) | TGI (SNB-78 CNS) | TGI (SR leukemia) | TGI (TK-10 renal) | TGI (XF 498 CNS)
O=c1[nH]cc(N(CCCl)CCCl)c(=O)[nH]1 | 366 µM | 103 µM | 74.4 µM | 303 µM | 199 µM | 196 µM | 187 µM | 175 µM | 201 µM | 66.7 µM | 70 µM | 204 µM | 183 µM | 172 µM | 369 µM | 55.1 µM | 325 µM | 89.7 µM
COc1ccc2c[n+](C)c3c4cc(OC)c(OC)cc4ccc3c2c1 | 42.2 µM | 4.16 µM | 12.5 µM | 37.4 µM | > 96.1 µM | 29.7 µM | 12 µM | 25.6 µM | 13.8 µM |  |  | 27.7 µM | 14.7 µM |  | 33.5 µM | 14.4 µM | 51.5 µM | 22.1 µM
O=NNc1cnccn1 | > 1250 µM | > 1250 µM | > 1250 µM | > 1250 µM | > 1250 µM | > 1250 µM |  | > 1250 µM | > 1250 µM | > 1250 µM | > 1250 µM | > 1250 µM | > 330 µM | > 1250 µM | > 1250 µM | > 1110 µM | > 1250 µM | 
